Where two headings read alike, the source gives them in different places. Marks after values point to notes of the source that are not given here.
Columns and labels:
[1] = Study CL-001 single-dose escalation in healthy subjects, plasma PK; format: in vivo, human; conditions: for Tmax / Vd/F / half-life / Cmax / AUC(0-inf): both sexes, human, plasma
Experimental: Study Oteseconazole CL-001 (hereafter referenced as “CL-001”) was a single-center, Phase 1, double-blind, randomized, placebo-controlled, dose-escalating study in healthy adult subjects.
Sixty-four subjects (43 males and 21 females) between 18 and 55 years of age were enrolled in 8 dose groups. Within each dose group, 6 subjects received oteseconazole and 2 subjects received placebo. In the first 7 cohorts, escalating single oral doses (5, 10, 20, 40, 80, 160, or 320 mg) were administered in the fasted state using 2.5, 20, or 60 mg capsules of oteseconazole or matching placebo. An eighth cohort received a single 320 mg oral dose of oteseconazole or matching placebo after ingesting a high-fat breakfast. Subjects in Cohorts 1 through 6 were followed for 14 days for safety and PK assessments. Visits on Days 28 and 42 were added for Cohorts 7 and 8. Dose escalation proceeded only after safety and PK of the previous dose were determined.
The PK analysis was based on concentration-time data from 36 subjects who received active oteseconazole at doses between 20 mg and 320 mg. The majority of the oteseconazole plasma concentrations in Cohort 1 (5 mg) and Cohort 2 (10 mg) were below the limit of quantification (<20 ng/mL); therefore, no PK analysis could be conducted on these subjects.

[2] = Study CL-011 plasma concentrations; format: in vivo; conditions: human
Experimental: A total of 217 subjects were randomized to receive oteseconazole and 109 subjects were randomized to receive placebo. All subjects were followed for 36 weeks after the end of treatment. Blood samples for determination of oteseconazole plasma concentrations were collected at Baseline, Day 14, Week 12, Week 24, Week 36, and Week 48 (End of Study (EOS]). Following the loading dose regimen of 150 mg oteseconazole QD for 7 days, the mean (SD) oteseconazole plasma concentration at Day 14 was 1676.2 (876.27) μg/L.

Study CL-006 plasma PK = format: in vivo, human; conditions: for AUC(0-t): read-out: AUC0-8
Description: Oteseconazole plasma concentrations continued to increase after the 7-day loading dose portion of the Maintenance Period until the end of dosing in an approximately dose-proportional manner FIG. 3.
Mean plasma PK parameters on Day 7 of the Maintenance Period are presented by treatment group in Table 12.

recurrent VVC episode = assay: Study CL-006 culture-verified recurrent VVC episodes; format: in vivo, human; conditions: 150 mg, 3 months dose group (150 mg QD 7 days, then 150 mg QW 11 weeks)
Description: The dosing regimen yielded oteseconazole plasma concentrations that provided marked efficacy across all dose groups, with no differences in the extent of efficacy noted.

[3] = Physicochemical and biological properties of drug substance
Description: As a BCS Class IIc drug, it may be anticipated that dissolution may be dependent upon the drug substance particle size. (Tsume et al., 2014). Micronization of the drug substance provided a means to deliver drug substance with a small and consistent particle size. A discriminatory dissolution method was developed to show the effect of drug substance particle size on dissolution to help ensure product quality. […] A high shear wet granulation process was developed to densify the product, and improve its flow to enable manufacturing, while maintaining good dissolution from the formulation.

[4] = Cohort 4, single oral 40 mg, fasted, mean
[5] = Cohort 5, single oral 80 mg, fasted, mean
[6] = Cohort 6, single oral 160 mg, fasted, mean
[7] = Cohort 7, single oral 320 mg, Fasted, mean
[8] = Cohort 8, single oral 320 mg, Fed (high-fat breakfast), mean
[9] = po, 40 mg, Cohort 4, single oral 40 mg, fasted, mean
[10] = po, 80 mg, Cohort 5, single oral 80 mg, fasted, mean
[11] = po, 160 mg, Cohort 6, single oral 160 mg, fasted, mean
[12] = po, 320 mg, Cohort 7, single oral 320 mg, Fasted, mean
[13] = po, 320 mg, Cohort 8, single oral 320 mg, Fed (high-fat breakfast), mean
[14] = human, plasma, 150 mg, Day 7, 150 mg, 12 weeks
[15] = human, plasma, 150 mg, Day 7, 150 mg, 24 weeks
[16] = human, plasma, 300 mg, Day 7, 300 mg, 12 weeks
[17] = human, plasma, 300 mg, Day 7, 300 mg, 24 weeks

plasma concentrations with standard high-fat meal versus fasted state ([1]; 320 mg, Cohort 8 versus Cohort 7): higher plasma concentrations
plasma concentrations (majority below the limit of quantification) ([1]; Cohort 1 (5 mg) and Cohort 2 (10 mg)): < 20 ng/mL
Tlag ([1]; Cohort 3, single oral 20 mg, fasted, mean): 1.84 h
CL/F ([1]; Cohort 3, single oral 20 mg, fasted, mean, N = 5): 1.39 ^a L/h
CL/F [1, 4]: 1.30 L/h
Tlag [1, 4]: 1.58 h
CL/F [1, 5]: 1.08 L/h
Tlag [1, 5]: 1.17 h
CL/F [1, 6]: 1.67 L/h
Tlag [1, 6]: 0.75 h
CL/F [1, 7]: 1.35 L/h
Tlag [1, 7]: 0.67 h
CL/F [1, 8]: 0.406 L/h
Tlag [1, 8]: 1.25 h
Tmax ([1]; oral, 4 hours at 80 mg to 10 hours at 40 mg, read-out: Median Tmax, range over doses): 4 to 10 h
Vd/F ([1]; oral, all cohorts, read-out: Vz/F, range of cohort averages): 696 to 1650 L
half-life ([1]; po, 20 mg, Cohort 3, single oral 20 mg, fasted, N = 5): 393 h
Cmax ([1]; po, 20 mg, Cohort 3, single oral 20 mg, fasted, mean): 44.7 ng/mL
AUC(0-inf) ([1]; po, 20 mg, Cohort 3, single oral 20 mg, fasted, mean, N = 5): 16100 ng·h/mL
Vd/F ([1]; po, 20 mg, Cohort 3, single oral 20 mg, fasted, mean, N = 5, read-out: Vz/F): 696 L
Tmax ([1]; po, 20 mg, Cohort 3, single oral 20 mg, fasted, median, read-out: Tmax): 5.03 h
half-life ([1]; po, 40 mg, Cohort 4, single oral 40 mg, fasted): 548 h
AUC(0-inf) [1, 9]: 35000 ng·h/mL
Cmax [1, 9]: 79.7 ng/mL
Vd/F ([1]; po, 40 mg, Cohort 4, single oral 40 mg, fasted, mean, read-out: Vz/F): 939 L
Tmax ([1]; po, 40 mg, Cohort 4, single oral 40 mg, fasted, median, read-out: Tmax): 10 h
half-life ([1]; po, 80 mg, Cohort 5, single oral 80 mg, fasted): 536 h
AUC(0-inf) [1, 10]: 84600 ng·h/mL
Cmax [1, 10]: 165 ng/mL
Vd/F ([1]; po, 80 mg, Cohort 5, single oral 80 mg, fasted, mean, read-out: Vz/F): 761 L
Tmax ([1]; po, 80 mg, Cohort 5, single oral 80 mg, fasted, median, read-out: Tmax): 4.01 h
half-life ([1]; po, 160 mg, Cohort 6, single oral 160 mg, fasted): 618 h
AUC(0-inf) [1, 11]: 109000 ng·h/mL
Cmax [1, 11]: 180 ng/mL
Vd/F ([1]; po, 160 mg, Cohort 6, single oral 160 mg, fasted, mean, read-out: Vz/F): 1400 L
Tmax ([1]; po, 160 mg, Cohort 6, single oral 160 mg, fasted, median, read-out: Tmax): 6 h
half-life ([1]; po, 320 mg, Cohort 7, single oral 320 mg, Fasted): 873 h
AUC(0-inf) [1, 12]: 242000 ng·h/mL
Cmax [1, 12]: 338 ng/mL
Vd/F ([1]; po, 320 mg, Cohort 7, single oral 320 mg, Fasted, mean, read-out: Vz/F): 1650 L
Tmax ([1]; po, 320 mg, Cohort 7, single oral 320 mg, Fasted, median, read-out: Tmax): 5 h
half-life ([1]; po, 320 mg, Cohort 8, single oral 320 mg, Fed (high-fat breakfast)): 1470 h
AUC(0-inf) [1, 13]: 953000 ng·h/mL
Cmax [1, 13]: 988 ng/mL
Vd/F ([1]; po, 320 mg, Cohort 8, single oral 320 mg, Fed (high-fat breakfast), mean, read-out: Vz/F): 741 L
Tmax ([1]; po, 320 mg, Cohort 8, single oral 320 mg, Fed (high-fat breakfast), median, read-out: Tmax): 6 h
concentration at 12 week ([2]; 150 mg, Week 12, maximum concentration, read-out: mean (SD) plasma concentration): 3400 ng/mL
concentration at 48 week ([2]; 150 mg, Week 48, read-out: mean (SD) plasma concentration): 1150 ng/mL
concentration at 14 day ([2]; Day 14, after loading 150 mg QD for 7 days, read-out: mean (SD) plasma concentration): 1680 ng/mL
Tmax (Study CL-006 plasma PK; Day 7, 150 mg, 24 weeks): 4.93 h
Tmax (Study CL-006 plasma PK; Day 7, 300 mg, 12 weeks): 4.92 h
Cmax (Study CL-006 plasma PK; [14]): 1340 ng/mL
AUC(0-t) (Study CL-006 plasma PK; [14]): 9120 ng·h/mL
Cmax (Study CL-006 plasma PK; [15]): 1800 ng/mL
AUC(0-t) (Study CL-006 plasma PK; [15]): 12300 ng·h/mL
Cmax (Study CL-006 plasma PK; [16]): 2750 ng/mL
AUC(0-t) (Study CL-006 plasma PK; [16]): 20500 ng·h/mL
Cmax (Study CL-006 plasma PK; [17]): 3120 ng/mL
AUC(0-t) (Study CL-006 plasma PK; [17]): 21600 ng·h/mL
concentration at 48 week (Study CL-006 plasma PK; human, plasma, 150 mg oteseconazole): 2150 ng/mL
concentration at 48 week (Study CL-006 plasma PK; human, plasma, 300 mg oteseconazole): 5090 ng/mL
Tmax (Study CL-006 plasma PK; human, plasma, Day 7, 150 mg, 12 weeks, read-out: Tmax): 4 h
half-life (Study CL-006 plasma PK; human, plasma, calculated using a population PK approach): ~171 days
BCS class [3]: BCS Class IIc
hygroscopicity [3]: slightly hygroscopic
stability to light [3]: stable in the presence of light
solubility ([3]; BCS classification): low solubility
chemical stability ([3]; alone and formulated into a drug product): excellent chemical stability
bulk density ([3]; micronized drug substance): approximately 0.2 g/mL
Compound: O[C@@](Cn1cnnn1)(c1ccc(F)cc1F)C(F)(F)c1ccc(-c2ccc(OCC(F)(F)F)cc2)cn1 [Oteseconazole, oteseconazole]
subjects with a culture-verified recurrent VVC episode by Week 48 (recurrent VVC episode): 4.8%
ionization ([3]; pH range of the gastrointestinal tract): unionized throughout the pH range of the gastrointestinal tract
